Laboratory results taken from patent US9034866B2 (Genentech, Inc., priority 2012, dated 2015).

target: nuclear factor-kappa B (NF-kB)-inducing kinase (NIK) (Homo sapiens (Human), UniProt Q99558); assay: NIK Enzyme Inhibition Assay (Transcreener ADP fluorescence polarization); format: biochemical; details: purified NIK 0.2-1 nM, 10 uM ATP, Morrison's quadratic equation; read-out: NIK ADP-FP (Ki uM)
Description: NIK Enzyme Inhibition Assay: The ability of the nuclear factor-kappa B (NF-kB)-inducing kinase (NIK) to catalyze the hydrolysis of adenosine-5′-triphosphate (ATP) was monitored using the Transcreener ADP (adenosine-5′-diphosphate) assay (BellBrook Labs). Purified NIK (0.2-1 nM) derived from a baculovirus-infected insect cell expression system was incubated with test compounds for 1-3.5 hours in 50 mM 2-[4-(2-hydroxyethyl)piperazin-1-yl]ethanesulfonic acid buffer (pH 7.2) containing 10 mM MgCl2, 2 mM dithiothreitol, 10 uM ATP, 0.01% Triton X-100, 0.1% gamma-globulins from bovine blood, 1% dimethylsulfoxide (DMSO), 12 ug/mL ADP antibody and 4 nM ADP-AlexaFluor® 633 tracer. Reactions were quenched by the addition of 20 mM 2,2′,2″,2′″-(ethane-1,2-diyldinitrilo)tetraacetic acid and 0.01% Brij 35. The tracer bound to the antibody was displaced by the ADP generated during the NIK reaction, which causes a decrease in fluorescence polarization that was measured by laser excitation at 633 nm with a Fluorescence Correlation Spectroscopy Plus reader (Evotec AG).

Chain of nuclear factor-kappa B (NF-kB)-inducing kinase (NIK) (Q99558 whole entry): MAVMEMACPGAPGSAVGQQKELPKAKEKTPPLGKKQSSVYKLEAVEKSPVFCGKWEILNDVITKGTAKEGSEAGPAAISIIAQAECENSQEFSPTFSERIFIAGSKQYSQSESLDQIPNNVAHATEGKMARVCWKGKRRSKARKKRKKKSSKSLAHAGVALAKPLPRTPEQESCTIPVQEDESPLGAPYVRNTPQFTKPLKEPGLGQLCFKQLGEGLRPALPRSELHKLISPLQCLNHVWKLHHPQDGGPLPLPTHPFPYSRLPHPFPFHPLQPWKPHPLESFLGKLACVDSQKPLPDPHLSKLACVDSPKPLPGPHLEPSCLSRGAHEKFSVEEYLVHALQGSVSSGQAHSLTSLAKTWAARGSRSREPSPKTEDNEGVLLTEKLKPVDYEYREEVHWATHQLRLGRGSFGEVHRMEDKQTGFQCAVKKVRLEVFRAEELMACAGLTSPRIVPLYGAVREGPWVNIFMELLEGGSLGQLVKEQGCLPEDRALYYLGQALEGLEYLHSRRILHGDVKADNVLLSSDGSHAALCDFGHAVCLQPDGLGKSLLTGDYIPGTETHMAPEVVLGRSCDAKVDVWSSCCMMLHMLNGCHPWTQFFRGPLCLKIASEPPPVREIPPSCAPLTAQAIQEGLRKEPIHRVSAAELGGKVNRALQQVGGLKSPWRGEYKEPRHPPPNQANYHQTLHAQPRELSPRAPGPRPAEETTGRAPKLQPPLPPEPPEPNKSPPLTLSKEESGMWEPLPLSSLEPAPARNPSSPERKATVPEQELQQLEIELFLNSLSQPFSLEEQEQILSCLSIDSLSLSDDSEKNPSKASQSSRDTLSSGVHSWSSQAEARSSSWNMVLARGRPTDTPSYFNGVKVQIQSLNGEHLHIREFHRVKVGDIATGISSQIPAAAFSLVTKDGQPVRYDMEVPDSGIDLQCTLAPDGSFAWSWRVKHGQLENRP

Row | Ki [µM] | Compound
1 | 0.23 | COCCN(C)Cc1c(C(N)=O)nc2n1C1CC(C1)c1cc(F)c(C#CC(C)(C)O)cc1-2 (racemic) [Example 239]
2 | 0.031 | Cn1cncc1C(O)c1c(C(N)=O)nc2n1C1CC(C1)c1cc(F)c(C#CC(C)(C)O)cc1-2 (centres unmarked) [listing 1 of 2 here]
3 | 0.014 | COCC(C)(O)C#Cc1cc2c(cc1F)C1CC(C1)n1c-2nc(C(N)=O)c1C1CC1 (racemic)
4 | 0.97 | CC(C)(O)C#Cc1ccc2c(c1)-c1nc(C(N)=O)sc1C(NC1CCC1)CO2 (centres unmarked) [Example 22, 4-cyclobutylamino-9-(3-hydroxy-3-meth-yl-but-1-ynyl)-4,5-dihydro-6-oxa-3-thia-1-aza-benzo[e]azulene-2-carboxylic acid amide]
5 | 0.0065 | CC(O)(C#Cc1cc2c(cc1F)C1CC(C1)n1c-2nc(C(N)=O)c1-c1nc(C2CC2)n[nH]1)CO (centres unmarked)
6 | 0.012 | CC(C)(O)C#Cc1cc2c(cc1F)OCCn1c-2nc(C(N)=O)c1Cc1ccccc1F [Example 25, 8-fluoro-3-(2-fluoro-benzyl)-9-(3-hydro-xy-3-methyl-but-1-ynyl)-4,5-dihydro-6-oxa-1,3a-diaza-benzol[e]azulene-2-car-boxylic acid amide]
7 | 0.2 | CC(C)(O)C#Cc1ccc2c(c1)-c1nc(C(N)=O)c(Cn3ncc4cccnc43)n1CCO2
8 | 4 | CC(O)(C#Cc1cc2c(cc1F)OCCn1cc(C(N)=O)nc1-2)c1ncc(F)cn1 (centres unmarked)
9 | 0.319 | CC(C)(O)C#Cc1ccc2c(c1)-c1nc(C(N)=O)cn1CCO2 [Example 2, 9-(3-hydroxy-3-methyl-but-1-ynyl)-4,5-dihydro-6-oxa-1,3a-diaza-benzo[e]azu-lene-2-carboxylic acid amide]
10 | 0.01 | NC(=O)c1cn2c(n1)-c1cc(C#CC3(O)CCC3)c(F)cc1OCC2 [Example 17, 8-fluoro-9-(1-hydroxy-cyclobutylethynyl)-4,5-dihydro-6-oxa-1,3a-diaza-benzo[e]azulene-2-carboxylic acid amide]
11 | 0.0005 | CN1CC[C@@](O)(C#Cc2ccc3c(c2)-n2nc(C(N)=O)cc2C2(CCC2)CO3)C1=O [Example 717, (R)-9-((3-hydroxy-1-methyl-2-oxopyrro-lidin-3-yl)ethynyl)-5H-spiro[ben-zo[b]pyrazolo[1,5-d][1,4]oxazepine-4,1′-cyclobutane]-2-carboxamide]
12 | 0.011 | Cn1cncc1C(O)c1c(C(N)=O)nc2n1C1CC(C1)c1cc(F)c(C#CC(C)(C)O)cc1-2 (centres unmarked) [listing 2 of 2 here]
13 | > 5 | CC(C)(O)C#Cc1cc2c(cc1Cl)OCCn1cc(C(N)=O)nc1-2 (racemic) [Example 186]
14 | 0.0042 | CC(C)NCc1c(C(N)=O)nc2n1CCOc1ccc(C#CC(C)(C)O)cc1-2
15 | 3.9 | Cc1nc(C(C)(O)C#Cc2cc3c(cc2F)OCCn2cc(C(N)=O)nc2-3)n[nH]1 (centres unmarked)
16 | 0.0097 | COCC(C)(O)C#Cc1ccc2c(c1)-c1nc(C(N)=O)cn1C1CC2C1 (centres unmarked)
17 | 0.0003 | CN1CC[C@@](O)(C#Cc2ccc3c(c2)-n2nc(C(N)=O)c(C(F)F)c2CCO3)C1=O [Example 718, (R)-3-(difluoromethyl)-9-((3-hydroxy-1-methyl-2-oxopyrrolidin-3-yl)ethynyl)-4,5-dihydrobenzo[b]pyrazolo[1,5-d][1,4]oxazepine-2-carboxamide]
18 | 0.033 | Cn1cc([C@H](O)c2c(C(N)=O)nc3n2CCOc2cc(F)c(C#CC(C)(C)O)cc2-3)cn1
19 | > 1.2 | CN1CC[C@](O)(C#Cc2cc3c(cc2F)C2CC(C2)n2c-3nc(C(N)=O)c2C(C)(C)O)C1=O [Example 325, 9-fluoro-3-(1-hydroxy-1-methyl-ethyl)-10-[2-[(3S)-3-hydroxy-1-methyl-2-oxo-pyrrolidin-3-yl]ethynyl]-5,6,7,12-tetra-hydro-5,7-methanobenzo[c]imidazo-[1,2-a]azepine-2-carboxamide]
20 | 0.54 | CC(C)(O)C#Cc1ccc2c(c1)-c1nc(C(N)=O)c(C(F)(F)F)n1CCO2 (racemic) [Example 198]
21 | 0.403 | CN(C)C(=O)CC1COc2ccc(C#CC(C)(C)O)cc2-c2nc(C(N)=O)sc21 (centres unmarked) [Example 43, 4-dimethylcarbamoylmethyl-9-(3-hydro-xy-3-methyl-but-1-ynyl)-4,5-dihydro-6-oxa-3-thia-1-aza-benzo[e]azulene-2-car-boxylic acid amide]
22 | 0.048 | CC(C)(O)C#Cc1cc2c(cc1F)OCCn1c-2nc(C(N)=O)c1C(=O)NCCN1CCCC1 (racemic) [Example 67]
23 | 0.001 | CC(O)(C#Cc1cc2c(cc1F)OCCn1cc(C(N)=O)nc1-2)c1c[nH]cn1 (centres unmarked)

Row | Ki [µM] | Compound
24 | 0.721 | CN(C)C(=O)C(C)(O)C#Cc1cc2c(cc1F)OCCn1cc(C(N)=O)nc1-2 (racemic) [Example 51]
25 | 0.003 | CC(C)(O)C#Cc1cc2c(cc1F)OCCn1c-2nc(C(N)=O)c1-c1cc[nH]n1 [Example 35, 8-fluoro-9-(3-hydroxy-3-methyl-but-1-ynyl)-3-(1H-pyrazol-3-yl)-4,5-dihydro-6-oxa-1,3a-diaza-benzo[e]azulene-2-car-boxylic acid amide]
26 | 0.0068 | CC(O)(C#Cc1cc2c(cc1F)C1CC(C1)n1cc(C(N)=O)nc1-2)c1ccccn1 (racemic) [Example 160]
27 | 0.009 | COCC(C)(O)C#Cc1cc2c(cc1F)OCCn1c-2nc(C(N)=O)c1-c1nc(C2CC2)n[nH]1 (centres unmarked) [Example 213]
28 | > 5 | CC(O)(C#Cc1cc2c(cc1F)OCCn1cc(C(N)=O)nc1-2)C1(C)CC1 (racemic) [Example 64]
29 | 0.1 | NC(=O)c1cc2n(n1)-c1cc(C#CC3(O)CCCC3)ccc1OCC21COC1 [Example 715, 9-((1-hydroxycyclopentyl)ethynyl)-5H-spiro[benzo[b]pyrazolo[1,5-d][1,4]oxa-zepine-4,3′-oxetane]-2-carboxamide]
30 | 0.0072 | CC(C)(O)C#Cc1cc2c(cc1F)OCCn1c-2nc(C(N)=O)c1C(O)c1cc(F)cc(F)c1 (racemic) [Example 161]
31 | 0.142 | CC(O)C(C)(O)C#Cc1cc2c(cc1F)OCCn1cc(C(N)=O)nc1-2 (centres unmarked) [Example 142]
32 | 0.025 | Cc1c(C(N)=O)nc2n1CCOc1cc(F)c(C#CC(C)(C)O)cc1-2 [Example 34, 8-fluoro-9-(3-hydroxy-3-methyl-but-1-ynyl)-3-methyl-4,5-dihydro-6-oxa-1,3a-diaza-benzo[e]azulene-2-carboxylic acid amide]
33 | 0.007 | CNC(=O)c1c(C(N)=O)nc2n1CCOc1cc(F)c(C#C[C@@](C)(O)c3noc(C)n3)cc1-2 [Example 97, 8-fluoro-9-[(R)-3-hydroxy-3-(5-methyl-[1,2,4]oxadiazol-3-yl)-but-1-ynyl]-4,5-dihydro-6-oxa-1,3a-diaza-ben-zo[e]azulene-2,3-dicarboxylic acid 2-amide 3-methylamide]
34 | 0.771 | CC(O)(C#Cc1ccc2c(c1)-c1nc(C(N)=O)cn1CCO2)CO (centres unmarked) [Example 20]
35 | 0.502 | Cc1nc(-c2c(C(N)=O)nc3n2CCOc2cc(F)c(C#CC(C)(C)O)cc2-3)n(CC(F)(F)F)n1
36 | 0.068 | COCC(C)(O)C#Cc1cc2c(cc1F)OCCn1cc(C(N)=O)nc1-2 (centres unmarked)
37 | 0.0019 | CC(C)(O)C#Cc1ccc2c(c1)-c1nc(C(N)=O)c(CN3CCC(C#N)C3)n1CCO2 (centres unmarked)
38 | 2.5 | Cc1nc(C(C)(O)C#Cc2cc3c(cc2F)OCCn2cc(C(N)=O)nc2-3)c[nH]1 (racemic)
39 | 4.9 | CC(O)C(C)(O)C#Cc1cc2c(cc1F)OCCn1cc(C(N)=O)nc1-2 (centres unmarked)
40 | 0.008 | Cc1cc([C@](C)(O)C#Cc2ccc3c(c2)-n2nc(C(N)=O)cc2C2(CCC2)CO3)no1 [Example 716, (R)-9-(3-hydroxy-3-(5-methylisoxazol-3-yl)but-1-yn-1-yl)-5H-spiro[benzo[b]py-razolo[1,5-d][1,4]oxazepine-4,1′-cyclo-butane]-2-carboxamide]
41 | 0.024 | CC(O)(C#Cc1cc2c(cc1F)OCCn1cc(C(N)=O)nc1-2)c1ccccn1 (racemic) [Example 54]
42 | 0.12 | CN1CCN(Cc2c(C(N)=O)nc3n2C2CC(C2)c2cc(F)c(C#CC(C)(C)O)cc2-3)CC1 (racemic)
43 | 0.854 | CC(O)(C#Cc1cc2c(cc1F)OCCn1cc(C(N)=O)nc1-2)C(=O)NC1CC1 (centres unmarked) [Example 94]
44 | > 5 | CNC(=O)c1c(C(N)=O)nc2n1CCOc1ccc(C#C[C@](C)(O)c3ccccn3)cc1-2
45 | 0.083 | CC(O)(C#Cc1cc2c(cc1F)OCCn1cc(C(N)=O)nc1-2)c1ncc[nH]1 (racemic)

Row | Compound | Ki [µM]
46 | CN1CC[C@@](O)(C#Cc2cc3c(cc2F)OCC(F)(F)c2sc(C(N)=O)nc2-3)C1=O [Example 641, 4,4,8-trifluoro-9-[2-[(3R)-3-hydroxy-1-methyl-2-oxo-pyrrolidin-3-yl]ethynyl]-5H-[1]benzoxepino[5,4-d]thiazole-2-carboxamide] | 0.0002
47 | CC(C)(O)C#Cc1cc2c(cc1F)OCCn1c-2nc(C(N)=O)c1Cc1ccccc1 [Example 24, 3-benzyl-8-fluoro-9-(3-hydroxy-3-meth-yl-but-1-ynyl)-4,5-dihydro-6-oxa-1,3a-diaza-benzo[e]azulene-2-carboxylic acid amide] | 0.011
48 | CN1CCCC(NC(=O)c2c(C(N)=O)nc3n2CCOc2cc(F)c(C#CC(C)(C)O)cc2-3)C1 (centres unmarked) [Example 78] | 0.06

same assay, conditions: read-out: NIK ADP-FP (Ki uM)

Row | Compound | Ki [µM]
49 | CN1CC[C@@](O)(C#Cc2ccc3c(c2)-c2nc(C(N)=O)c(COc4ccccc4Cl)n2CCO3)C1=O | 0.004
50 | CNC(=O)c1c(C(N)=O)nn2c1CCOc1ccc(C#C[C@@](C)(O)c3cc(C)on3)cc1-2 [Example 548] | 0.0014
